From patent US20250376473A1, “PRMTS INHIBITOR AND USE THEREOF” (Cytosinlab Therapeutics Co., Ltd., priority 2022, published 2025) come the findings set out here.

Read-outs that look alike come from different tables or passages of the source. Bounds are passed on as bounds.

Assay [1] relates to HCT116-MTAP-KO cells (HCT116 MTAP null). The experiment in a line: Proliferation inhibition of HCT116 MTAP-KO cells in vitro (CellTiter Glo). The following applies: 6 days, 9 concentrations starting from 3 μM, read-out: Cell proliferation inhibition rate HCT116 MTAP null IC50 (nm). Format: cell-based. In outline:
(§1)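 HCT116 (MTAP WT) or CRISPR MTAP-knockout HCT116 cells (100 per well) were exposed for 6 days at 37 °C to 9-point, 3-fold dilutions starting at 30 μM (WT) or 3 μM (KO), with 0.4% DMSO final. Viability was read by CellTiter-Glo luminescence, and IC50 came from a four-parameter fit.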

In assay [2] the test system is HCT116 MTAP WT cells. The experiment in a line: Proliferation inhibition of HCT116 cells in vitro (CellTiter Glo). It is filed as cell-based. The following applies: 6 days, 9 concentrations starting from 30 μM, read-out: Cell proliferation inhibition rate HCT116 MTAP WT IC50 (nm). The gist of the method:
as §1

Turning to `Cc1ncc2c(N)nc3cc(F)c(C(=O)N(Cc4cnn(C5CCOCC5)c4)c4ccnn4C)cc3n12` [Example 227], the IC50 lay in the range of 100 to 1000 nM in assay [1] (HCT116-MTAP null, 144 h) and 1000 to 10000 nM in assay [2] (Homo sapiens, HCT-116, 144 h).

As for `Cc1ncc2c(N)nc3cc(F)c(C(=O)N(Cc4ncc(C(F)(F)F)cc4F)c4ccnn4C)cc3n12` [Example 228], the IC50 in assay [1] (HCT116-MTAP null, 144 h) is < 100 nM; in assay [2] (Homo sapiens, HCT-116, 144 h) it was 100 to 1000 nM.

Consider `Cc1ncc2c(N)nc3cc(F)c(C(=O)N(Cc4ccc(S(F)(F)(F)(F)F)cc4)c4ccnn4C)cc3n12` [Example 229], for which the IC50 is < 100 nM in assay [1] (HCT116-MTAP null, 144 h) and 100 to 1000 nM in assay [2] (Homo sapiens, HCT-116, 144 h).

Regarding `Cc1ncc2c(N)nc3cc(F)c(C(=O)N(Cc4cnn(C5COC5)c4)c4ccnn4C)cc3n12` [Example 231], the IC50 in assay [1] (HCT116-MTAP null, 144 h) was 100 to 1000 nM; in assay [2] (Homo sapiens, HCT-116, 144 h) it was 1000 to 10000 nM.

For the compound `Cc1ncc2c(N)nc3cc(F)c(C(=O)N(Cc4ccncn4)c4ccnn4C)cc3n12` [Example 232], the IC50 in assay [1] (HCT116-MTAP null, 144 h) was in the range of 100 to 1000 nM; in assay [2] (Homo sapiens, HCT-116, 144 h), 1000 to 10000 nM.

Take `Cc1ncc2c(N)nc3cc(F)c(C(=O)N(Cc4cnn(-c5ccccn5)c4)c4ccnn4C)cc3n12` [Example 234]: the IC50 in assay [1] (HCT116-MTAP null, 144 h) is < 100 nM; in assay [2] (Homo sapiens, HCT-116, 144 h), 1000 to 10000 nM.

On to `COC1CCC1N(Cc1cn2cc(C(F)(F)F)ccc2n1)C(=O)c1cc2c(cc1F)nc(N)c1cnc(C)n12` (stereo not shown) [Example 240], for which the IC50 in assay [1] (HCT116-MTAP null, 144 h) was < 100 nM; in assay [2] (Homo sapiens, HCT-116, 144 h) it was 1000 to 10000 nM.

On to `Cc1ncc2c(N)nc3cc(F)c(C(=O)N(Cc4cn5ccccc5n4)C(C)C(F)(F)F)cc3n12` (stereo not shown) [Example 243], for which the IC50 in assay [1] (HCT116-MTAP null, 144 h) is 100 to 1000 nM; in assay [2] (Homo sapiens, HCT-116, 144 h), 1000 to 10000 nM.

Consider `CCN(Cc1cn2cc(C(F)F)ccc2n1)C(=O)c1cc2c(cc1F)nc(N)c1c(C)ncn12` [Example 244], for which the IC50 in assay [1] (HCT116-MTAP null, 144 h) was < 100 nM; in assay [2] (Homo sapiens, HCT-116, 144 h) it was 1000 to 10000 nM.

`COc1ccc(C2COCC(C)N2C(=O)c2cc3c(cc2F)nc(N)c2cnc(C)n23)nn1` (stereo not shown) [Example 271]: the IC50 in assay [1] (HCT116-MTAP null, 144 h) is < 100 nM; in assay [2] (Homo sapiens, HCT-116, 144 h) it was 1000 to 10000 nM.

Turning to `Cc1ncc2c(N)nc3cc(F)c(C(=O)N4C(C)COCC4c4ccc(C(F)(F)F)cn4)cc3n12` (stereo not shown) [Example 273], the IC50 was < 100 nM in assay [1] (HCT116-MTAP null, 144 h) and 1000 to 10000 nM in assay [2] (Homo sapiens, HCT-116, 144 h).

Consider `Cc1ncc2c(N)nc3cc(F)c(C(=O)N4C(C)COCC4c4ccc(C(F)(F)F)cc4)cc3n12` (stereo not shown) [Example 275], for which the IC50 in assay [1] (HCT116-MTAP null, 144 h) was < 100 nM; in assay [2] (Homo sapiens, HCT-116, 144 h) it was 1000 to 10000 nM.

Turning to `COc1ccc(C2COCC(C)N2C(=O)c2cc3c(cc2F)nc(N)c2c(C)ncn23)nn1` (stereo not shown) [Example 278], the IC50 in assay [1] (HCT116-MTAP null, 144 h) was in the range of 100 to 1000 nM; in assay [2] (Homo sapiens, HCT-116, 144 h) it was 100 to 1000 nM.

On to `Cc1ncn2c1c(N)nc1cc(F)c(C(=O)N3C(C)COCC3c3ccc(C(F)(F)F)cn3)cc12` (stereo not shown) [Example 280], for which the IC50 in assay [1] (HCT116-MTAP null, 144 h) was < 100 nM; in assay [2], 100 to 1000 nM.

As for `Cc1ncn2c1c(N)nc1cc(F)c(C(=O)N3C(C)COCC3c3ccc(C(F)(F)F)cc3)cc12` (stereo not shown) [Example 282], the IC50 in assay [1] (HCT116-MTAP null, 144 h) was < 100 nM; in assay [2] (Homo sapiens, HCT-116, 144 h), 1000 to 10000 nM.

In the case of `CCN(Cc1cn2cc(C(F)(F)F)ccc2n1)C(=O)c1cc2c(cc1F)nc(N)c1c(C)ncn12` [Example 285], the IC50 is < 100 nM in assay [1] (HCT116-MTAP null, 144 h) and 1000 to 10000 nM in assay [2] (Homo sapiens, HCT-116, 144 h).

Consider `Cc1ncn2c1c(N)nc1ccc(C(=O)N(Cc3nc(-c4cccnn4)cs3)CC(C)C)cc12` [Example 294], for which the IC50 in assay [1] (HCT116-MTAP null, 144 h) was in the range of 100 to 1000 nM; in assay [2] (Homo sapiens, HCT-116, 144 h), 1000 to 10000 nM.

With `Cc1ncn2c1c(N)nc1ccc(C(=O)N(CC(C)C)C(C)c3nc(-c4ccccn4)cs3)cc12` (stereo not shown) [Example 299], the IC50 in assay [1] (HCT116-MTAP null, 144 h) is < 100 nM; in assay [2] (Homo sapiens, HCT-116, 144 h), 1000 to 10000 nM.

Take `Cc1ncn2c1c(N)nc1ccc(C(=O)N(Cc3nc(N4CCOCC4)cs3)CC(C)C)cc12` [Example 301]: the IC50 in assay [1] (HCT116-MTAP null, 144 h) is 100 to 1000 nM; in assay [2] (Homo sapiens, HCT-116, 144 h), 1000 to 10000 nM.

For the compound `Cc1ncn2c1c(N)nc1ccc(C(=O)N(Cc3nc(C4=CCOCC4)cs3)CC(C)C)cc12` [Example 303], the IC50 is < 100 nM in assay [1] (HCT116-MTAP null, 144 h) and 1000 to 10000 nM in assay [2] (Homo sapiens, HCT-116, 144 h).

As for `Cc1ncn2c1c(N)nc1ccc(C(=O)N(Cc3nc(-c4ncccn4)cs3)CC(C)C)cc12` [Example 305], the IC50 was < 100 nM in assay [1] (HCT116-MTAP null, 144 h) and 1000 to 10000 nM in assay [2] (Homo sapiens, HCT-116, 144 h).

Regarding `Cc1ncn2c1c(N)nc1ccc(C(=O)N(Cc3nc(-c4ccccn4)cs3)CC(C)C)cc12` [Example 307], the IC50 in assay [1] (HCT116-MTAP null, 144 h) is < 100 nM; in assay [2] (Homo sapiens, HCT-116, 144 h) it was 1000 to 10000 nM.

In the case of `Cc1cccc(-c2ncc(CN(CC(C)C)C(=O)c3ccc4nc(N)c5c(C)ncn5c4c3)[nH]2)n1` [Example 308], the IC50 lay within 100 to 1000 nM in assay [1] (HCT116-MTAP null, 144 h) and 1000 to 10000 nM in assay [2] (Homo sapiens, HCT-116, 144 h).

Regarding `Cc1ncn2c1c(N)nc1ccc(C(=O)N(Cc3nc(C4CCOCC4)cs3)CC(C)C)cc12` [Example 310], the IC50 in assay [1] (HCT116-MTAP null, 144 h) was < 100 nM; in assay [2] (Homo sapiens, HCT-116, 144 h) it was 1000 to 10000 nM.

With `Cc1cccc(-c2csc(CN(CC(C)C)C(=O)c3ccc4nc(N)c5c(C)ncn5c4c3)n2)n1` [Example 312], the IC50 in assay [1] (HCT116-MTAP null, 144 h) was < 100 nM; in assay [2] (Homo sapiens, HCT-116, 144 h), 1000 to 10000 nM.

Turning to `Cc1cnn2c1c(N)nc1ccc(C(=O)N(Cc3ccc(C(F)(F)F)cn3)C(C)c3ncccn3)cc12` (stereo not shown) [Example 315], the IC50 in assay [1] and in assay [2] was < 100 nM each time.

In the case of `Cc1ncc2c(N)nc3cc(F)c(C(=O)N(Cc4cnn(C5CC5)c4)c4ccnn4C)cc3n12` [Example 317], the IC50 in assay [1] (HCT116-MTAP null, 144 h) is < 100 nM; in assay [2] (Homo sapiens, HCT-116, 144 h), 1000 to 10000 nM.

`Cc1ncc2c(N)nc3cc(F)c(C(=O)N(Cc4cnc(C5CC5)n4C)c4ccnn4C)cc3n12` [Example 318]: the IC50 was in the range of 100 to 1000 nM in assay [1] (HCT116-MTAP null, 144 h) and 1000 to 10000 nM in assay [2] (Homo sapiens, HCT-116, 144 h).

Consider `Cc1ncc2c(N)nc3cc(F)c(C(=O)N(Cc4cnn(CC(F)(F)F)c4)c4ccnn4C)cc3n12` [Example 319], for which the IC50 in assay [1] (HCT116-MTAP null, 144 h) is 100 to 1000 nM; in assay [2] (Homo sapiens, HCT-116, 144 h), 1000 to 10000 nM.

As for `COCCN(C)c1ccc(CN(C(=O)c2cc3c(cc2F)nc(N)c2cnc(C)n23)c2ccnn2C)nc1` [Example 320], the IC50 was 100 to 1000 nM in assay [1] (HCT116-MTAP null, 144 h) and 1000 to 10000 nM in assay [2] (Homo sapiens, HCT-116, 144 h).

In the case of `Cc1ncc2c(N)nc3cc(F)c(C(=O)N(Cc4cccc(C(F)(F)F)n4)c4ccnn4C)cc3n12` [Example 326], the IC50 in assay [1] (HCT116-MTAP null, 144 h) was < 100 nM; in assay [2] (Homo sapiens, HCT-116, 144 h), 1000 to 10000 nM.

`Cn1ncc2c(N)nc3cc(F)c(C(=O)N4CCC5(CCN(c6ccc(C(F)(F)F)cc6)CC5)C4)cc3c21` [Example 414]: the IC50 in assay [1] (HCT116-MTAP null, 144 h) is 100 to 1000 nM; in assay [2] (Homo sapiens, HCT-116, 144 h), 1000 to 10000 nM.
